This note sets out measurements from ChEMBL document CHEMBL4414679, “Discovery of 4,6-pyrimidinediamine derivatives as novel dual EGFR/FGFR inhibitors aimed EGFR/FGFR1-positive NSCLC” (Eur J Med Chem, 2020).

The structures appear in SMILES notation. pIC50: −log10 of the molar value. The source made the active and inactive calls. No cut-off for these calls is given here. Bounds are passed on as bounds.

The subject of assay [1] is PC-9. Briefly: Antiproliferative activity against human PC9 cells assessed as inhibition of cell growth at 10 uM incubated for 48 hrs by MTT assay relative to control. As to conditions: PC-9, 48 h. In kind it is functional.
For assay [2], the target named is T1, Epidermal growth factor receptor (Homo sapiens, UniProt P00533). Briefly: Inhibition of N-terminal GST-tagged human EGFR cytoplasmic domain (669-1210 AA) expressed in baculovirus at 10 uM using FAM-labelled peptide as substrate pre-incubated for 10 mins followed by substrate addition by mobility shift assay relative to control.
T1 sequence (P00533 whole entry, the tested form may be a part): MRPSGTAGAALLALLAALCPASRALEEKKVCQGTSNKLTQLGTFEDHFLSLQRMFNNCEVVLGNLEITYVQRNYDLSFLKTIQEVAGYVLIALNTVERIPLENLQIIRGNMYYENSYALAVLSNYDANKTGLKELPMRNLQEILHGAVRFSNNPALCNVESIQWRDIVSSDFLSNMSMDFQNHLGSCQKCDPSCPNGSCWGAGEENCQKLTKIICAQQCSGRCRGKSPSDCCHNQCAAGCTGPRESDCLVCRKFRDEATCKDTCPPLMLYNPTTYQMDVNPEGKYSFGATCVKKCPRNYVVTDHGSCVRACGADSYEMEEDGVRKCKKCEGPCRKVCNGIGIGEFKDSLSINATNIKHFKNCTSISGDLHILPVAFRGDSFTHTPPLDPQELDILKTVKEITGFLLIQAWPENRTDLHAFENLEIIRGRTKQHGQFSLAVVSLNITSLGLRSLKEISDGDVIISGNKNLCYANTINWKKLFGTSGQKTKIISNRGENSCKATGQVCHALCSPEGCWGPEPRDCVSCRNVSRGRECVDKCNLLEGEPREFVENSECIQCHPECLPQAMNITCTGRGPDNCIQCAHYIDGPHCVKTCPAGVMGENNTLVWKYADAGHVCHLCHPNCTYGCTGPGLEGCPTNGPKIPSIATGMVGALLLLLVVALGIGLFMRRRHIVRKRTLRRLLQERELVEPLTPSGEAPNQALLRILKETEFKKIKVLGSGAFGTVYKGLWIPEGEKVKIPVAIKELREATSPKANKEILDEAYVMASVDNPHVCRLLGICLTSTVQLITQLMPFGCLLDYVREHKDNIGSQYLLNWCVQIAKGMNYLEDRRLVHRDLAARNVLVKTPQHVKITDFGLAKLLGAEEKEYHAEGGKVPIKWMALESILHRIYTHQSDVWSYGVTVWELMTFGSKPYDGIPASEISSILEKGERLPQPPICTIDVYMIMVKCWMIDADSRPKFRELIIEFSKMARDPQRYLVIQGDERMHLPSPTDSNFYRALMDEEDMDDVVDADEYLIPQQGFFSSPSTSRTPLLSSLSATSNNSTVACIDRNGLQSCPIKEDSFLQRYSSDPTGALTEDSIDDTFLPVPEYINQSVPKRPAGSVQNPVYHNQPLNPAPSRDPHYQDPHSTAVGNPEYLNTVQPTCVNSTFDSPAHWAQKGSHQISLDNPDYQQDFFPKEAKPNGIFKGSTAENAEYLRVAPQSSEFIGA
Assay [3] relates to NCI-H1581. Briefly: Antiproliferative activity against human NCI-H1581 cells incubated for 48 hrs by MTT assay. Particulars: NCI-H1581, 48 h. In kind it is functional, cell-based. Background: Formazan colour is commonly taken as a measure of viable cells.
Assay [4] deals with T2, Fibroblast growth factor receptor 1 (Homo sapiens, UniProt P11362). Briefly: Inhibition of N-terminal GST-tagged human FGFR1 cytoplasmic domain (398-822 AA) expressed in baculovirus using FAM-labelled peptide as substrate pre-incubated for 10 mins followed by substrate addition by mobility shift assay.
Target sequence in this assay (P11362 whole entry, the tested form may be a part): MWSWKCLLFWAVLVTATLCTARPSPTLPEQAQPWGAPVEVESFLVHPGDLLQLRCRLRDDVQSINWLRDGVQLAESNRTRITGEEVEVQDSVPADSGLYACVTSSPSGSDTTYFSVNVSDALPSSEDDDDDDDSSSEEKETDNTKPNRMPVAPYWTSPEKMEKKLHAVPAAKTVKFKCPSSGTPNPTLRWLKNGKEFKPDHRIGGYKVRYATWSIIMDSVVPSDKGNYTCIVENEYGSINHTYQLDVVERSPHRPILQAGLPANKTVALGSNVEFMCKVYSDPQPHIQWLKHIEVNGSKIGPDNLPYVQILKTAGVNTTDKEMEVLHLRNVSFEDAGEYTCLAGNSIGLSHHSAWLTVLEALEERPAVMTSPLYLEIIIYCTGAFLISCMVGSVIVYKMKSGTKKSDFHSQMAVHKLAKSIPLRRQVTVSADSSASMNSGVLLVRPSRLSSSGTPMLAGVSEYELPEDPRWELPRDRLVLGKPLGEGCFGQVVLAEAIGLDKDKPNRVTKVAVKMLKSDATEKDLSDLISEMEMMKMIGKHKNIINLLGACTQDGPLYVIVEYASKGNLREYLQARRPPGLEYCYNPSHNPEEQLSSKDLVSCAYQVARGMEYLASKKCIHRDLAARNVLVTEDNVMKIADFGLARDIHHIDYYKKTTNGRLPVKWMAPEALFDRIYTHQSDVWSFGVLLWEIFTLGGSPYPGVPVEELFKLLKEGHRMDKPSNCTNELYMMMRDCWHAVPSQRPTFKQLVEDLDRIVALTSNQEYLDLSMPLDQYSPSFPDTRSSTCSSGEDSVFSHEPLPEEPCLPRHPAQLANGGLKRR
Assay [5] deals with T1, Epidermal growth factor receptor. Briefly: Inhibition of N-terminal GST-tagged human EGFR (d746-750AA) expressed in baculovirus using FAM-labelled peptide as substrate pre-incubated for 10 mins followed by substrate addition by mobility shift assay.
For assay [6], the target named is T2, Fibroblast growth factor receptor 1. The assay can be described thus: Inhibition of N-terminal GST-tagged human FGFR1 cytoplasmic domain (398-822 AA) expressed in baculovirus at 10 uM using FAM-labelled peptide as substrate pre-incubated for 10 mins followed by substrate addition by mobility shift assay relative to control.
Target sequence in this assay (P11362 22-822 limits assumed): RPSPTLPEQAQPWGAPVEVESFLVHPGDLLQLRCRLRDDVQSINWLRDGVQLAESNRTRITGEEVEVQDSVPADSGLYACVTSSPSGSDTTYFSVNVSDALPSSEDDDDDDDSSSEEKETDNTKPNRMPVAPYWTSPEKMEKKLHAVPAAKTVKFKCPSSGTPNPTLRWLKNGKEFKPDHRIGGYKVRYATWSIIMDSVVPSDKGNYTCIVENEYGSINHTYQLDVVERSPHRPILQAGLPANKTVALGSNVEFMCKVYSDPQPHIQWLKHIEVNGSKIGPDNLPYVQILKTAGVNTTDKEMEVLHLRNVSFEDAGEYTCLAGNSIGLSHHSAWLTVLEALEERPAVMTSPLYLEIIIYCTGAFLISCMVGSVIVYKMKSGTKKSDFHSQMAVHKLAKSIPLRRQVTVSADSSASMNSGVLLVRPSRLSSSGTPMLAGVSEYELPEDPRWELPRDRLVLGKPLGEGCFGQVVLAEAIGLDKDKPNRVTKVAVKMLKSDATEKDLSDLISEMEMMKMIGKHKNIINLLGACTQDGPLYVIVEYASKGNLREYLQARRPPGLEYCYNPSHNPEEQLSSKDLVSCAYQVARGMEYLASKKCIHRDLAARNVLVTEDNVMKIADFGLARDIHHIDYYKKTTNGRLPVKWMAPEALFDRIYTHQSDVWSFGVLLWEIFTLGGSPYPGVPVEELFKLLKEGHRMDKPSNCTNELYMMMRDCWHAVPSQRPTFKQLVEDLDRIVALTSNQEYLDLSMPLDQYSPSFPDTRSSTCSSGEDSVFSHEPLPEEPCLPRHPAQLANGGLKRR
The test system of assay [7] is NCI-H520. Briefly: Antiproliferative activity against human NCI-H520 cells incubated for 48 hrs by MTT assay. In kind it is functional, cell-based. Particulars: NCI-H520, 48 h.
Assay [8] deals with NCI-H226. Briefly: Antiproliferative activity against human NCI-H226 cells assessed as inhibition of cell growth at 10 uM incubated for 48 hrs by MTT assay relative to control. In kind it is functional. As to conditions: NCI-H226, 48 h.
The test system of assay [9] is NCI-H520. Briefly: Antiproliferative activity against human NCI-H520 cells assessed as inhibition of cell growth at 10 uM incubated for 48 hrs by MTT assay relative to control. In kind it is functional. As to conditions: NCI-H520, 48 h.
Assay [10] deals with PC-9. The assay can be described thus: Antiproliferative activity against human PC9 cells incubated for 48 hrs by MTT assay. In kind it is functional, cell-based. Particulars: PC-9, 48 h.
Assay [11] concerns Epidermal growth factor receptor (Homo sapiens), P00533 [L858R]. The assay can be described thus: Inhibition of recombinant human EGFR L858R mutant expressed in baculovirus at 10 uM using FAM-labelled peptide as substrate pre-incubated for 10 mins followed by substrate addition by mobility shift assay relative to control.
Chain of Epidermal growth factor receptor (Homo sapiens), P00533 [L858R] (P00533 whole entry L858R): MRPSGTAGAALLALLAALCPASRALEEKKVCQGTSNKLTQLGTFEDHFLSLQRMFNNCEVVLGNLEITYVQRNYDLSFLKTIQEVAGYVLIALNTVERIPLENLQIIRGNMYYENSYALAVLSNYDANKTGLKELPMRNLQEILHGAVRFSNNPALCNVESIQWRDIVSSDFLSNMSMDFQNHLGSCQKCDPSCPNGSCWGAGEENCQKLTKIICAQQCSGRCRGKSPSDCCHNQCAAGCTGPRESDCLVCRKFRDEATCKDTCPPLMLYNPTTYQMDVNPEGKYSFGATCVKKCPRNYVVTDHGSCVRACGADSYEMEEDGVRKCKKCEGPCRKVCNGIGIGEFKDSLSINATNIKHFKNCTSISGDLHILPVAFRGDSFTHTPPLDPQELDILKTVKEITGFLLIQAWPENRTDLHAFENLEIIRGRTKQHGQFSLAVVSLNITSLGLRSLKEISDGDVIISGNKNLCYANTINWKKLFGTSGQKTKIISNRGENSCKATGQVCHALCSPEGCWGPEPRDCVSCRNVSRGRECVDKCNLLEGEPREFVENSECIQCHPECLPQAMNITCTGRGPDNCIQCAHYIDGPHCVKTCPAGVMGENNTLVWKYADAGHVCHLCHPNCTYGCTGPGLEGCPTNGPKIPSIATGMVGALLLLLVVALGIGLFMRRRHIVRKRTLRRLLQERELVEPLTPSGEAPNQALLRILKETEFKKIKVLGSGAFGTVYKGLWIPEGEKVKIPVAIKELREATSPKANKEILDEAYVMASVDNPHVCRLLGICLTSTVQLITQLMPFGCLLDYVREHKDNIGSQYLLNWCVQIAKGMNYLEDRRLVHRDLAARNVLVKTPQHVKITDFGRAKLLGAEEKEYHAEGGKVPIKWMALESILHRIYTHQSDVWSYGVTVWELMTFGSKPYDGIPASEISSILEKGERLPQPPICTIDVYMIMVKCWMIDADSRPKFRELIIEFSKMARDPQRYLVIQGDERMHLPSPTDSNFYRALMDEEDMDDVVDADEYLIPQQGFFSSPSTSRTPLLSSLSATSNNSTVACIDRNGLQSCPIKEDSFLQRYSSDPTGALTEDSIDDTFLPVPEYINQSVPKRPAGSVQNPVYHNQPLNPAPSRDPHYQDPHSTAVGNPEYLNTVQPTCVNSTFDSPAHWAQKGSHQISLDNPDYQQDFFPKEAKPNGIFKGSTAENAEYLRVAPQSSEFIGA
Assay [12] relates to NCI-H226. The assay can be described thus: Antiproliferative activity against human NCI-H226 cells incubated for 48 hrs by MTT assay. As to conditions: NCI-H226, 48 h. In kind it is functional, cell-based.
The test system of assay [13] is NCI-H1581. The assay can be described thus: Antiproliferative activity against human NCI-H1581 cells assessed as inhibition of cell growth at 10 uM incubated for 48 hrs by MTT assay relative to control. In kind it is functional. As to conditions: NCI-H1581, 48 h.
The subject of assay [14] is HCC827. Briefly: Antiproliferative activity against human HCC827 cells incubated for 48 hrs by MTT assay. In kind it is functional, cell-based. As to conditions: HCC827, 48 h.
In assay [15] the test system is HCC827. Briefly: Antiproliferative activity against human HCC827 cells assessed as inhibition of cell growth at 10 uM incubated for 48 hrs by MTT assay relative to control. In kind it is functional. As to conditions: HCC827, 48 h.
In assay [16] the target is T1, Epidermal growth factor receptor. The assay can be described thus: Inhibition of N-terminal GST-tagged human EGFR cytoplasmic domain (669-1210 AA) expressed in baculovirus using FAM-labelled peptide as substrate pre-incubated for 10 mins followed by substrate addition by mobility shift assay.
Assay [17] shares this target. Briefly: Inhibition of N-terminal GST-tagged human EGFR (d746-750AA) expressed in baculovirus at 10 uM using FAM-labelled peptide as substrate pre-incubated for 10 mins followed by substrate addition by mobility shift assay relative to control.
Assay [18] addresses Epidermal growth factor receptor (Homo sapiens, UniProt P00533, L858R). Briefly: Inhibition of recombinant human EGFR L858R mutant expressed in baculovirus using FAM-labelled peptide as substrate pre-incubated for 10 mins followed by substrate addition by mobility shift assay.
The target in assay [19] is T2, Fibroblast growth factor receptor 1. As to conditions: 10 uM.
Target sequence in this assay (P11362 22-822 limits assumed): as the sequence (P11362 22-822 limits assumed) above
Description: Inhibition of FGF-induced FGFR1 phosphorylation in serum-starved human H520 cells at 10 uM incubated for 1 hr by Western blot analysis
Assay [20] has the same target. As to conditions: 10 uM. The source holds these as a separate data set.
Target sequence in this assay (P11362 22-822 limits assumed): as above
Description: Inhibition of FGFR in serum-starved human H520 cells assessed as reduction in FGFR-induced AKT phosphorylation at 10 uM incubated for 1 hr by Western blot analysis

As usually defined, the inhibition is the change of the read-out against control, counted positive when it falls. What is called pIC50 is the IC50 on a negative log10 scale, so that one unit is a factor of ten. Regarding `Cc1cc(F)cc(Nc2cc(NC(=O)Nc3c(Cl)cccc3Cl)ncn2)c1`, the inhibition at 10 µM in assay [1] stood at 80%; in [8], 78.1%; in assay [9] it was 60.5%; in assay [13] it was 65%; in assay [15], 49.1%. Moreover, the inhibition in assay [2] was 79.2%; in assay [6] it was 70.3%; in [11], 91.9%; in assay [17], 89.7%. The negative-log IC50 (pIC50) in assay [3] was 5.32; in [4], 5.91; in assay [5], 6.60; in assay [7] it was 5.42; in assay [10] it was 5.55; in assay [12] it was 5.53. The pIC50 in [14] was 4.73; in [16] it was 6.28; in assay [18] it was 6.76.
Take `COc1cc(NC(=O)Nc2cc(Nc3cc(OC)ccc3OC)ncn2)cc(OC)c1`: the inhibition at 10 µM in assay [1] was determined as 59.5%; in assay [8] it was 41.1%; in assay [9], 34%; in assay [13] it was 40.7%; in assay [15], 63%. Besides, the inhibition turned out to be 63.3% in assay [2], 3.4% in assay [6], 60% in [11] and 65.7% in assay [17]. The pIC50 in [3] was 5.08; in assay [7], 5.12; in assay [10] it was 5.23; in [12] it was 5.13; in assay [14], 5.49.
For the compound `COc1cc(NC(=O)Nc2cc(Nc3cc(OC)cc(OC)c3)ncn2)cc(OC)c1`, the inhibition at 10 µM was 76.5% in assay [1]; 38.3% in assay [8]; 40.5% in [9]; 40.7% in assay [13]; 51.3% in assay [15]. Further, the inhibition is 66.2% in assay [2], 10.6% in assay [6], 51.7% in assay [11] and 56.7% in [17]. Also, the negative-log IC50 (pIC50) in assay [3] is 5.13; in [7], 4.96; in assay [10], 5.42; in assay [12], 5.08; in assay [14] it was 5.37.
For `COc1cc(NC(=O)Nc2cc(Nc3cc(I)ccc3OC)ncn2)cc(OC)c1`, the inhibition at 10 µM in [1] turned out to be 91%; in assay [8] it was 56.7%; in [9], 55%; in assay [13], 59%; in assay [15], 71%. The inhibition was 58.7% in [2], -2.1% in assay [6], 74% in [11] and 60.2% in [17]. Also, the pIC50 in [3] is 5.05; in [7], 5.01; in assay [10], 5.45; in assay [12], 4.71; in [14], < 4.70.
`COc1cc(Nc2cc(NC(=O)Nc3c(Cl)cccc3Cl)ncn2)cc(OC)c1`: the inhibition at 10 µM in assay [1] came out at 90%; in assay [8] it was 60%; in [9] it was 55.5%; in assay [13] it was 68%; in [15] it was 73.7%. Besides, the inhibition is 87.3% in assay [2], 74.2% in [6], 79.4% in assay [11] and 84.2% in [17]. In addition, the pIC50 was 5.27 in assay [3]; 5.96 in [4]; 6.48 in assay [5]; 4.98 in assay [7]; 5.50 in assay [10]; 4.77 in assay [12]. Moreover, the negative logarithm of the IC50 (pIC50) was 4.88 in assay [14], 6.50 in assay [16] and 6.31 in [18].
As for `COc1cc(NC(=O)Nc2cc(Nc3cc(C(F)(F)F)ccc3OC)ncn2)cc(OC)c1`, the inhibition at 10 µM in [1] is 81.1%; in assay [8], 60%; in assay [9], 63%; in assay [13], 67%; in assay [15], 59.7%. For the same compound, the inhibition came to 74.6% in assay [2], 11% in assay [6], 73.1% in assay [11] and 54.2% in assay [17]. The negative-log IC50 (pIC50) in [3] was 5.13; in [7] it was 5.35; in assay [10], 5.21; in [12], 4.84; in [14] it was 4.82.
`CCN1CCN(c2ccc(Nc3cc(N(C)C(=O)Nc4c(Cl)c(OC)cc(OC)c4Cl)ncn3)cc2)CC1` [INFIGRATINIB]: the inhibition result in assay [19] and in assay [20] was “Active” in each case. Besides, the inhibition at 10 µM in assay [1] is 55.5%; in assay [8], 67.3%; in [9], 77.1%; in [13], 83.7%; in [15] it was 32%.
